Measured values published in patent publication US4782072A, “Thiadiazole derivative” (Reckitt & Colman Products Limited, priority 1986, dated 1988).

Key:
[1] = metrazol antagonism test (MMS), rat; assay type: in vivo; conditions: read-out: ED50 (limits) RAT MMS
Description: (§1) The pharmacological activity of the compound of the invention has been determined according to the following procedures. Its anticonvulsant activity was determined in the metrazol antagonism test in both mice and rats (MMS) (Soaje-Echaque E; Lim RKS, J Pharmac Exp Ther 1962, 138, 224; Desmedt LKC; Niemegeers CJE; Lewi PJ; Janssen PAJ, Arzneim-Forsch (Drug Res), 1976, 26, 1592) and the electroshock test (MES) (Perry JK; Tower DB; Woodbury DM; Walter RD, "Experimental Models of Epilepsy", editor Purpura DP; Raven Press: New York, 1972, 434).

[2] = electroshock test (MES), mouse; assay type: in vivo
Description: as §1

in vivo = conditions: for TD50 ip at time of peak effect / TD50 po at 1 hour: rotarod; for TD50 ip at time of peak effect: at time of peak anticonvulsant effect; for TD50 po at 1 hour: dose at which 50% of trained animals fall off the rotarod
Description: An assessment of the neurotoxicity of the compound was carried out in mice using the rotarod test (Collier, HOJ; Fieller, EC; Hall, RA, Analyst, 1949, 74, 592).
^a Dose at which 50% of trained animals fall off the rotarod.
^b Protective index is calculated by dividing the TD50 (ip at
time of peak anticonvulsant effect) by the ED50 under the same

[3] = anticonvulsant tests (MES and MMS), rat and mouse, summary; assay type: in vivo; conditions: for anticonvulsant activity: electrically and chemically induced seizures
Description: as §1

[4] = metrazol antagonism test (MMS), mouse; assay type: in vivo; conditions: read-out: ED50 (limits) MOUSE MMS
Description: as §1

[5] = electroshock test (MES), rat; assay type: in vivo; conditions: read-out: ED50 (limits) RAT MES
Description: as §1

[6] = ip, mouse, MES, i.p., at time of peak effect, read-out: ED50 (limits) MES at time of peak effect
[7] = mouse, MES, oral, t=1 hour, read-out: ED50 (limits) MOUSE MES
[8] = mouse, in vivo, ip, protective index (PI)

Row | SMILES | ED50 ([1]; rat, MMS, oral, t=1 hour) | ED50 [2, 6] | Time of peak effect ([2]; mouse, MES, i.p.) | ED50 [2, 7] | selectivity ratio (in vivo; [8]) | TD50 ip at time of peak effect (in vivo; ip) | TD50 po at 1 hour (in vivo) | ED50 ([4]; mouse, MMS, oral, t=1 hour) | ED50 ([5]; rat, MES, oral, t=1 hour) | also measured
1 | NCc1nnc(-c2ccccc2-c2ccccc2)s1 [Example, 2-Aminomethyl-5-(2-biphenylyl)-1,3,4-thiadiazole] | 9 mg/kg | 7 mg/kg | 10 min | 22 mg/kg | 6.5 | 45(23-68) mg/kg | 318(230-471) mg/kg | 20 mg/kg | 10 mg/kg | rate of absorption ([3]; inferred from time of peak effect, ip and oral, in words): very rapid rate of absorption; time of peak effect by both methods of administration ([3]; intraperitoneal and oral routes, after dosing): ten and twenty; anticonvulsant activity ([3]; rat and mouse, in words, listed as compound of Formula 1): potent anticonvulsant activity; anticonvulsant activity ([3]; rat and mouse, in words, listed as the compound): potent anticonvulsant, blocking both electrically and chemically induced seizures; effectiveness by intraperitoneal and oral routes ([3]; rat and mouse, in words): effective by both the intraperitoneal and oral routes; potency relative to established anticonvulsant drugs ([3]; rat and mouse, in words): comparable with established anticonvulsant drugs
2 | NC(=O)N1c2ccccc2C=Cc2ccccc21 [carbamazepine] | 3 mg/kg | 6 mg/kg | 20 min | 20 mg/kg | 11 | 67(29-108) mg/kg | 166(104-282) mg/kg | 11 mg/kg | 4 mg/kg | protective index (PI) (in vivo; in vivo, ip): 11.1
3 | CCC1(c2ccccc2)C(=O)NC(=O)NC1=O [phenobarbital] | – | – | 30 min | – | – | 86(54-140) mg/kg | 68(52-92) mg/kg | – | – | ED50 ([1]; Rattus norvegicus, po, 1 h): 4 mg/kg; ED50 ([2]; Mus musculus, ip, read-out: ED50 (limits) MES at time of peak effect): 18 mg/kg; ED50 ([2]; Mus musculus, po, 1 h, read-out: ED50 (limits) MOUSE MES): 12 mg/kg; ED50 ([4]; Mus musculus, po, 1 h): 4 mg/kg; ED50 ([5]; Rattus norvegicus, po, 1 h): 9 mg/kg
4 | O=C1NC(=O)C(c2ccccc2)(c2ccccc2)N1 [phenytoin] | 12 mg/kg | 8 mg/kg | 60 min | 8 mg/kg | – | 56(27-74) mg/kg | 216(154-239) mg/kg | 8 mg/kg | 14 mg/kg | selectivity ratio (in vivo; in vivo, ip): 7
